Earlier results on seven compounds are cited in patent publication US20220400744A1, “POUCHED PRODUCT COMPRISING DISSOLVABLE COMPOSITION” (NICOVENTURES TRADING LIMITED, priority 2021, published 2022).

Where two headings read alike, the source gives them in different places.

The conditions of series [1]: for logP: Table 1, partition coefficient between octanol and water.
For series [2] the following is noted: for solubility in water / aqueous environment: water or aqueous environment (e.g., saliva).
The conditions of series [3]: when isolated; isomerizes to trans-bixin.

Consider isopropyl benzoic acid, for which the logP in series [1] is 3.5. Consider `C=C(C)[C@@H]1CCC(C)=C[C@H]1c1c(O)cc(CCCCC)cc1O` [CBD, cannabidiol, reference compound], for which the “solubility in water / aqueous environment” value in series [2] is given as “insoluble”. Moreover, in series [1] (CBD), the logP value result is on record as “about 6.5”.

As to `CC(C)[C@@H]1CC[C@@H](C)C[C@H]1OC(=O)CCC(=O)O` [monomenthyl succinate], the logP in series [1] was 3. On to `COC(=O)/C=C/C(C)=C\C=C\C(C)=C\C=C\C=C(C)\C=C\C=C(C)\C=C\C(=O)O` [bixin, (2E,4E,6E,8E,10E,12E,14E,16Z,18E)-20-methoxy-4,8,13,17-tetramethyl-20-oxoicosa-2,4,6,8,10,12,14,16,18-nonaenoic acid], for which the “solubility in fats and alcohols” value in series [2] (fats and alcohols) is “soluble”. Moreover, the “solubility in water / aqueous environment” value in series [2] is “insoluble”. For the same compound, the chemical stability result in series [3] is listed as “chemically unstable”. For the compound `CC(/C=C/C=C(C)/C=C/C(=O)O)=C\C=C\C=C(C)\C=C\C=C(C)\C=C\C(=O)O` (stereo in doubt) [norbixin, (2E,4E,6E,8E,10E,12E,14E,16E,18E)-4,8,13,17-tetramethylicosa-2,4,6,8,10,12,14,16,18-nonaenedioic acid], the “solubility in water / aqueous environment” value in series [2] is given as “water soluble”. Take `CN1CCCC1c1cccnc1` (centres unmarked) [nicotine, reference compound]: the partitioning into octanol entry is given as “lower partitioning into octanol” in series [1] (acidic pH, about 6.5 to about 4, protonated form) and “high partitioning into octanol” in series [1] (alkaline pH, about 7.5 to about 9, free base form). Consider ethyl benzoic acid, for which the logP in series [1] was 2.9.
